Data as given in PubChem BioAssay AID328 (DTP/NCI, 2004).
“And” between values parts separate entries of the source, which are not always exact repeats. Equal values may be shown once. Toxic doses and inconclusive results are not listed. How the source made its calls: active means survival T/C of 150% or more; inactive means T/C below 125% in these data.

Test system: BDF1 mice, P388 leukemia ip, median survival T/C
Assay: NCI In Vivo Anticancer Drug Screen. Data for tumor model P388 Leukemia (intraperitoneal) in B6D2F1 (BDF1) mice
Conditions: endpoint: median survival time, higher = longer survival
How it was run: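 Each value expresses how treatment altered survival: treated-mouse outcome over vehicle-mouse outcome, both groups bearing the transplanted tumour.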

[1] = dose: 25.0 mg/kg/injection, schedule: Q01DX009 (ip), vehicle: saline
[2] = dose: 50.0 mg/kg/injection, schedule: Q01DX009 (ip), vehicle: saline
[3] = dose: 100.0 mg/kg/injection, schedule: Q01DX009 (ip), vehicle: saline
[4] = dose: 100.0 mg/kg/injection, schedule: Q04DX003 (ip), vehicle: saline with Tween-80
[5] = dose: 200.0 mg/kg/injection, schedule: Q04DX003 (ip), vehicle: saline with Tween-80
[6] = dose: 400.0 mg/kg/injection, schedule: Q04DX003 (ip), vehicle: saline with Tween-80
[7] = dose: 100.0 mg/kg/injection, schedule: Q04DX003 (ip), vehicle: Klucel (hydroxypropylcellulose) (HPC)
[8] = dose: 100.0 mg/kg/injection, schedule: Q04DX003 (ip), vehicle: saline
[9] = dose: 25.0 mg/kg/injection, schedule: Q04DX003 (ip), vehicle: saline
[10] = dose: 50.0 mg/kg/injection, schedule: Q04DX003 (ip), vehicle: saline
[11] = dose: 100.0 mg/kg/injection, schedule: Q01DX009 (ip), vehicle: saline with Tween-80
[12] = dose: 35.0 mg/kg/injection, schedule: Q01DX009 (ip), vehicle: saline

Measured: T/C

Nc1ccn(C2CC(O)C(CO)O2)c(=O)n1 (configuration not stated)
inactive: dose: 2.3 mg/kg/injection, schedule: Q01DX009 (ip), vehicle: water 117 % of control | dose: 9.37 mg/kg/injection, schedule: Q01DX009 (ip), vehicle: water 117 % of control | dose: 18.75 mg/kg/injection, schedule: Q01DX009 (ip), vehicle: water 110 % of control

COc1cc(C(=O)OC2c3ccccc3CCC2N(C)C)cc(OC)c1OC (configuration not stated)
inactive: [1] 102 % of control | [2] 103 % of control and 107 % of control | [3] 102 % of control

C#CC(O)C(CC)CCCC (configuration not stated)
inactive: [4] 100 % of control | [5] 100 % of control | [6] 100 % of control

CC(=O)Nc1onc(C)c1N
inactive: [2] 90 % of control | [3] 100 % of control | dose: 200.0 mg/kg/injection, schedule: Q01DX009 (ip), vehicle: saline 95 % of control

Cc1cc2c(C(C)C)c(O)c(O)c(C=O)c2c(O)c1-c1c(C)cc2c(C(C)C)c(O)c(O)c(C=O)c2c1O
inactive: dose: 1.25 mg/kg/injection, schedule: Q01DX009 (ip), vehicle: saline with Tween-80 124 % of control | dose: 2.5 mg/kg/injection, schedule: Q01DX009 (ip), vehicle: saline with Tween-80 120 % of control

CCCN(CCC)C(=S)[S-].CCCN(CCC)C(=S)[S-].[Zn]
inactive: dose: 37.5 mg/kg/injection, schedule: Q04DX003 (ip), vehicle: saline sonified 100 % of control | dose: 75.0 mg/kg/injection, schedule: Q04DX003 (ip), vehicle: saline sonified 100 % of control | dose: 150.0 mg/kg/injection, schedule: Q04DX003 (ip), vehicle: saline sonified 112 % of control

CCCCCCCCCCCCC1CC(=O)OC1=O (configuration not stated)
inactive: dose: 75.0 mg/kg/injection, schedule: Q01DX009 (ip), vehicle: Klucel (hydroxypropylcellulose) (HPC) 90 % of control | [7] 104 % of control | [8] 108 % of control | dose: 150.0 mg/kg/injection, schedule: Q01DX009 (ip), vehicle: Klucel (hydroxypropylcellulose) (HPC) 90 % of control | dose: 200.0 mg/kg/injection, schedule: Q04DX003 (ip), vehicle: Klucel (hydroxypropylcellulose) (HPC) 109 % of control | dose: 300.0 mg/kg/injection, schedule: Q01DX009 (ip), vehicle: Klucel (hydroxypropylcellulose) (HPC) 109 % of control | dose: 400.0 mg/kg/injection, schedule: Q04DX003 (ip), vehicle: Klucel (hydroxypropylcellulose) (HPC) 100 % of control | dose: 400.0 mg/kg/injection, schedule: Q04DX003 (ip), vehicle: saline 120 % of control

O=C(O)CCCCCCc1ccc2ccccc2n1
inactive: dose: 50.0 mg/kg/injection, schedule: Q01DX009 (ip), vehicle: other 105 % of control | dose: 100.0 mg/kg/injection, schedule: Q01DX009 (ip), vehicle: other 117 % of control | dose: 200.0 mg/kg/injection, schedule: Q01DX009 (ip), vehicle: other 114 % of control

O=C1NCCN1c1ccccn1
inactive: dose: 12.5 mg/kg/injection, schedule: Q04DX003 (ip), vehicle: saline 100 % of control | [9] 90 % of control | [10] 95 % of control

O=C(O)O.[Ce]
inactive: dose: 50.0 mg/kg/injection, schedule: Q01DX009 (ip), vehicle: saline with Tween-80 107 % of control | [11] 107 % of control

CCN(CC)CCNc1ccc(C)c2sc3ccccc3c(=O)c12 (tested in a mixture with another compound)
inactive: dose: 5.5 mg/kg/injection, schedule: Q01DX009 (ip), vehicle: saline 100 % of control and 121 % of control | dose: 8.2 mg/kg/injection, schedule: Q01DX009 (ip), vehicle: saline 90 % of control and 110 % of control | dose: 22.0 mg/kg/injection, schedule: Q01DX009 (ip), vehicle: saline 122 % of control | dose: 33.0 mg/kg/injection, schedule: Q01DX009 (ip), vehicle: saline 110 % of control | [12] 116 % of control | dose: 88.0 mg/kg/injection, schedule: Q04DX003 (ip), vehicle: saline 122 % of control | dose: 100.0 mg/kg/injection, schedule: Q04DX003 (ip), vehicle: alcohol 94 % of control | [8] 116 % of control | dose: 200.0 mg/kg/injection, schedule: Q04DX003 (ip), vehicle: alcohol 111 % of control | dose: 300.0 mg/kg/injection, schedule: Q04DX003 (ip), vehicle: saline 95 % of control | dose: 400.0 mg/kg/injection, schedule: Q04DX003 (ip), vehicle: alcohol 111 % of control
active: [2] 154 % of control | dose: 75.0 mg/kg/injection, schedule: Q01DX009 (ip), vehicle: saline 154 % of control and 180 % of control | dose: 200.0 mg/kg/injection, schedule: Q04DX003 (ip), vehicle: saline 166 % of control

CC(C)C([NH-])=O.CC(C)C([NH-])=O.[Cl][Pt+2][Cl]
inactive: dose: 3.12 mg/kg/injection, schedule: Q01DX009 (ip), vehicle: saline 93 % of control | dose: 6.25 mg/kg/injection, schedule: Q01DX009 (ip), vehicle: saline 101 % of control and 118 % of control | dose: 12.5 mg/kg/injection, schedule: Q01DX009 (ip), vehicle: saline 87 % of control and 117 % of control | [1] 87 % of control and 112 % of control and 123 % of control | [9] 118 % of control | [2] 95 % of control | [10] 116 % of control | [3] 93 % of control and 112 % of control | [8] 114 % of control

CC(=O)Nc1ccc(C(=O)NN)cc1
inactive: [11] 108 % of control | dose: 200.0 mg/kg/injection, schedule: Q01DX009 (ip), vehicle: saline with Tween-80 105 % of control | dose: 400.0 mg/kg/injection, schedule: Q01DX009 (ip), vehicle: saline with Tween-80 97 % of control

C=C(Br)COCC
inactive: dose: 5.78 mg/kg/injection, schedule: Q01DX001 (ip), vehicle: saline 95 % of control | dose: 11.56 mg/kg/injection, schedule: Q01DX001 (ip), vehicle: saline 113 % of control | dose: 13.75 mg/kg/injection, schedule: Q04DX003 (ip), vehicle: saline 95 % of control | dose: 23.12 mg/kg/injection, schedule: Q01DX001 (ip), vehicle: saline 104 % of control | dose: 27.5 mg/kg/injection, schedule: Q04DX003 (ip), vehicle: saline 109 % of control | [12] 100 % of control | dose: 46.25 mg/kg/injection, schedule: Q01DX001 (ip), vehicle: saline 100 % of control | dose: 55.0 mg/kg/injection, schedule: Q01DX009 (ip), vehicle: saline 109 % of control | dose: 55.0 mg/kg/injection, schedule: Q04DX003 (ip), vehicle: saline 90 % of control | dose: 80.0 mg/kg/injection, schedule: Q04DX003 (ip), vehicle: saline 110 % of control | dose: 92.5 mg/kg/injection, schedule: Q01DX001 (ip), vehicle: saline 113 % of control | dose: 125.0 mg/kg/injection, schedule: Q04DX003 (ip), vehicle: saline 100 % of control | dose: 185.0 mg/kg/injection, schedule: Q04DX003 (ip), vehicle: saline 100 % of control

NC(C(=O)O)c1cccc(Cl)c1 (configuration not stated)
inactive: dose: 100.0 mg/kg/injection, schedule: Q01DX001 (ip), vehicle: Klucel (hydroxypropylcellulose) (HPC) 91 % of control | dose: 200.0 mg/kg/injection, schedule: Q01DX001 (ip), vehicle: Klucel (hydroxypropylcellulose) (HPC) 108 % of control | dose: 400.0 mg/kg/injection, schedule: Q01DX001 (ip), vehicle: Klucel (hydroxypropylcellulose) (HPC) 95 % of control

Cc1c(C(=O)CCl)c(=O)n(-c2ccccc2)n1C
inactive: dose: 25.0 mg/kg/injection, schedule: Q01DX009 (ip), vehicle: Klucel (hydroxypropylcellulose) (HPC) 100 % of control | dose: 25.0 mg/kg/injection, schedule: Q04DX003 (ip), vehicle: Klucel (hydroxypropylcellulose) (HPC) 96 % of control | dose: 50.0 mg/kg/injection, schedule: Q01DX009 (ip), vehicle: Klucel (hydroxypropylcellulose) (HPC) 104 % of control | dose: 50.0 mg/kg/injection, schedule: Q04DX003 (ip), vehicle: Klucel (hydroxypropylcellulose) (HPC) 100 % of control | dose: 100.0 mg/kg/injection, schedule: Q01DX009 (ip), vehicle: Klucel (hydroxypropylcellulose) (HPC) 91 % of control | [7] 100 % of control and 103 % of control

N=C(N=C(N)N)N1CCOCC1
inactive: dose: 50.0 mg/kg/injection, schedule: Q04DX003 (ip), vehicle: saline with Tween-80 110 % of control | [4] 115 % of control | [5] 105 % of control

Cc1cccc(/C=N\OCc2ccccc2)n1
inactive: [4] 118 % of control | dose: 132.0 mg/kg/injection, schedule: Q04DX003 (ip), vehicle: saline with Tween-80 104 % of control | [5] 100 % of control | dose: 300.0 mg/kg/injection, schedule: Q04DX003 (ip), vehicle: saline with Tween-80 108 % of control | [6] 118 % of control

O=c1oc(/C=C/c2ccccc2)nc2cc(Cl)ccc12
inactive: [4] 100 % of control | [5] 109 % of control | [6] 100 % of control
